Data reported in the Bradley open melting point set (2014).
“And” between values parts separate entries of the source, which are not always exact repeats. Identical values can stand only once. Counter-ions that a name gives are not always drawn.

Row | Structure (SMILES) | melting point
1 | COC(=O)/C=C/C(=O)OC [dimethyl fumarate] | 104 °C
2 | C[SiH](C)c1ccccc1 [dimethylphenylsilane] | -124 °C
3 | O=S(c1ccccc1)c1ccccc1 [diphenyl sulfoxide] | 71 °C
4 | C(#Cc1ccccc1)c1ccccc1 [diphenylacetylene] [listing 1 of 2 here] | 63 °C
5 | C(#Cc1ccccc1)c1ccccc1 [diphenylacetylene] [listing 2 of 2 here] | 60 °C
6 | CCCCCCCCCCCC=O [dodecanal] | 12 °C
7 | Clc1ccc(COC(Cn2ccnc2)c2ccc(Cl)cc2Cl)cc1 (stereo unspecified) [econazole] | 87 °C
8 | O=C1CCCCCN1 [epsilon-caprolactam] | 70 °C
9 | O=C1CCCCCO1 [epsilon-caprolactone] | -2 °C
10 | O=Cc1cccc2c1CCOC2=O [erythrocentaurin] | 140 °C
11 | C[C@]12CC[C@@H]3c4ccc(O)cc4CC[C@H]3[C@@H]1C[C@@H](O)[C@@H]2O [estriol] | 282 °C
12 | C[C@]12CC[C@@H]3c4ccc(O)cc4CC[C@H]3[C@@H]1CCC2=O [estrone] [listing 1 of 2 here] | 259 °C
13 | C[C@]12CC[C@@H]3c4ccc(O)cc4CC[C@H]3[C@@H]1CCC2=O [estrone] [listing 2 of 2 here] | 255 °C
14 | CC [ethane] | -183 °C
15 | CCN(CC)C(C)CN1c2ccccc2Sc2ccccc21 (stereo unspecified) [ethopropazine] | 53 °C
16 | CCOC(=O)c1ccc(OC)c(OC)c1 [ethyl 3,4-dimethoxybenzoate] | 44 °C
17 | CCOC(=O)C1=C(C)CC(C)=N1 [ethyl 3,5-dimethylpyrrole-2-carboxylate] | 126 °C
18 | CCOC(=O)c1cc(-c2ccco2)n[nH]1 [ethyl 3-(2-furyl)-1h-pyrazole-5-carboxylate] | 136 °C
19 | CCOC(=O)/C=C/N(C)C [ethyl 3-(dimethylamino)acrylate] | 18 °C
20 | CCOC(=O)C1=CN=NC1C (stereo unspecified) [ethyl 3-methyl-1H-pyrazole-4-carboxylate] | 137 °C
21 | CCOC(=O)n1ccn(C)c1=S [ethyl 3-methyl-2-thionoimidazoline-1-carboxylate] | 124 °C
22 | CCOC(=O)c1ccc(N)cc1 [ethyl 4-aminobenzoate] | 90 °C
23 | CCOC(=O)c1ccc([N+](=O)[O-])o1 [ethyl 5-nitro-2-furoate] | 100 °C

Row | Structure (SMILES) | melting point
24 | C=CC(=O)OCC [ethyl acrylate] | -71 °C
25 | CCOC(=O)c1ccccc1 [ethyl benzoate] | -34 °C
26 | CCOC(=O)c1ccccn1 [ethyl picolinate] | 2 °C
27 | CCOC(=O)c1ccc([N+](=O)[O-])cc1 [ethyl_4-nitrobenzoate] | 58 °C
28 | CCOC=O [ethyl_formate] | -80 °C
29 | CCOC(=O)c1cccc(C#N)c1 [ethyl_m-cyanobenzoate] | 56 °C
30 | C=C [ethylene] | -169 °C
31 | N#Cc1ccc(C2CCCc3cncn32)cc1 (stereo unspecified) [fadrozole] | 117 °C
32 | O=C(O)Cc1ccccc1Oc1ccc(Cl)cc1Cl [fenclofenac] | 135 °C
33 | O=C(O)c1ccccc1Nc1cccc(C(F)(F)F)c1 [flufenamic acid] | 125 °C
34 | c1ccc2c(c1)Cc1ccccc1-2 [fluorene] | 116 °C and 115 °C
35 | O=C1OC2(OC=C(c3ccccc3)C2=O)c2ccccc21 (stereo unspecified) [fluorescamine] | 157 °C
36 | O=c1[nH]cc(F)c(=O)[nH]1 [fluorouracil] | 282 °C
37 | O=C1CN=C(c2ccccc2F)c2cc(Cl)ccc2N1CC1CC1 [flutoprazepam] | 118 °C
38 | NC=O [formamide] | 2 °C
39 | NNC=O [formic acid hydrazide] | 57 °C
40 | c1ccoc1 [furan] | -85 °C
41 | O=Cc1ccco1 [furfuraldehyde] | -36.5 °C
42 | NS(=O)(=O)c1cc(C(=O)O)c(NCc2ccco2)cc1Cl [furosemide] | 206 °C (2×) and 208 °C and 204 °C (2×)
43 | Cl[C@H]1[C@H](Cl)[C@@H](Cl)[C@@H](Cl)[C@H](Cl)[C@H]1Cl [g-bhc(lindane)] | 112 °C
44 | Cc1cc(C(=O)NCCc2ccc(S(=O)(=O)NC(=O)NN3CCCCCC3)cc2)no1 [glisoxepid] | 189 °C
45 | O=CC=O [glyoxal] | 15 °C
46 | COc1cc(OC)c2c(c1Cl)O[C@]1(C2=O)C(OC)CC(=O)C[C@H]1C (stereo partly specified) [griseofulvin] | 220 °C

Next, values leading:

Row | melting point | Structure (SMILES)
47 | 211 °C | COC(=O)c1[nH]c(C(=O)OC)c(O)c1O [dimethyl 3,4-dihydroxypyrrole-2,5-dicarboxylate]
48 | 4 °C | COC(=O)OC [dimethyl carbonate]
49 | 30 °C | COC(=O)CCCCCCCCC(=O)OC [dimethyl_sebacate]
50 | 147 °C | O=C(O)C(c1ccccc1)c1ccccc1 [diphenylacetic acid]
51 | 129 °C | O=C(O)CCCCCCCCCCC(=O)O [dodecanedioic acid]
52 | 189 °C | OC[C@@H](O)[C@H](O)[C@H](O)[C@@H](O)CO [dulcitol]
53 | 212 °C | CNC[C@H](O)c1ccc(O)c(O)c1 [epinephrine]
54 | 99 °C | O=C(O)CCCCCCC[C@H](O)[C@H](O)CCCCCCO [erythro-aleuritic acid]
55 | 166 °C | CCOC(=O)CCC(C)C1CCC2C3C(O)C(Br)C4CC(OC(C)=O)CCC4(C)C3CC(OC(C)=O)C12C (stereo unspecified) [ethyl 3,12-bis(acetyloxy)-6-bromo-7-hydroxycholan-24-oate]
56 | 84 °C | CCOC(=O)CCC(C)C1CCC2C3C=CC4CC(OC(C)=O)CCC4(C)C3CC(OC(C)=O)C12C (stereo unspecified) [ethyl 3,12-bis(acetyloxy)chol-6-en-24-oate]
57 | 32 °C | CCOC(=O)/C=C(/C)N [ethyl 3-aminocrotonate]
58 | -100 °C | CCOCCC(=O)OCC [ethyl 3-ethoxypropionate]
59 | 37 °C | CCOC(=O)Cc1ccc(O)cc1 [ethyl 4-hydroxyphenylacetate]
60 | -84 °C | CCOC(C)=O [ethyl acetate]
61 | -43 °C | CCOC(=O)CC(C)=O [ethyl acetoacetate]
62 | -93 °C | CCCC(=O)OCC [ethyl butyrate]
63 | 130 °C | CCOC(=O)C(C#N)=NO [ethyl isonitrosocyanoacetate]
64 | 67 °C | CCOC(=O)C1c2ccccc2Oc2ccccc21 [ethyl xanthene-9-carboxylate]
65 | -43 °C | CCOC(=O)CC(C)=O [ethyl_acetoacetate]
66 | -93 °C | CCCC(=O)OCC [ethyl_butyrate]
67 | -66 °C | CCCCCCC(=O)OCC [ethyl_heptanoate]
68 | -41 °C | CC(=O)OCCOC(C)=O [ethylene_glycol_diacetate]
69 | 164 °C | N=C(N)Nc1nc(CSCCC(=N)NS(N)(=O)=O)cs1 [famotidine]
70 | 151 °C | NC(=O)OCC(COC(N)=O)c1ccccc1 [felbamate]
71 | 111 °C (2×) and 115 °C and 110 °C | CC(C(=O)O)c1ccc(-c2ccccc2)c(F)c1 (stereo unspecified) [flurbiprofen]
72 | 61 °C | Cc1ccc(C)c(OCCCC(C)(C)C(=O)O)c1 [gemfibrozil]
73 | -15 °C | CC(C)=CCC/C(C)=C/CO [geraniol]
74 | -21 °C | O=CCCCC=O [glutaraldehyde]
75 | 3 °C | CC(=O)OCC(COC(C)=O)OC(C)=O [glycerol triacetate]
76 | 18 °C | OCC(O)CO [glycerol]
